According to BigSolDB 2.1:

Molecule `CC(=O)c1c(C)c([N+](=O)[O-])c(C(C)(C)C)c([N+](=O)[O-])c1C` has a solubility (mole fraction) (in DMF, 278.15 K) of 0.0747, a solubility (mole fraction) (in DMF, 283.15 K) of 0.0867 and a solubility (mole fraction) (in DMF, 288.15 K) of 0.0998. It also gave a solubility (mole fraction) (in DMF, 293.15 K) of 0.113, a solubility (mole fraction) (in DMF, 298.15 K) of 0.128 and a solubility (mole fraction) (in DMF, 303.15 K) of 0.147. For the same molecule, the solubility (mole fraction) (in DMF, 308.15 K) was 0.167, the solubility (mole fraction) (in DMF, 313.15 K) was 0.187 and the solubility (mole fraction) (in DMF, 318.15 K) was 0.211. The solubility (mole fraction) (in ethanol, 278.15 K) was 0.00197, the solubility (mole fraction) (in ethanol, 283.15 K) was 0.00243 and the solubility (mole fraction) (in ethanol, 288.15 K) was 0.003. It also gave a solubility (mole fraction) (in ethanol, 293.15 K) of 0.00367, a solubility (mole fraction) (in ethanol, 298.15 K) of 0.00444 and a solubility (mole fraction) (in ethanol, 303.15 K) of 0.00531. It also gave a solubility (mole fraction) (in ethanol, 308.15 K) of 0.00633, a solubility (mole fraction) (in ethanol, 313.15 K) of 0.00753 and a solubility (mole fraction) (in ethanol, 318.15 K) of 0.00892. The solubility (mole fraction) (in isopropanol, 278.15 K) was 0.00161, the solubility (mole fraction) (in isopropanol, 283.15 K) was 0.00204 and the solubility (mole fraction) (in isopropanol, 288.15 K) was 0.00258. It also gave a solubility (mole fraction) (in isopropanol, 293.15 K) of 0.00323, a solubility (mole fraction) (in isopropanol, 298.15 K) of 0.00408 and a solubility (mole fraction) (in isopropanol, 303.15 K) of 0.00506. The solubility (mole fraction) (in isopropanol, 308.15 K) was 0.0063, the solubility (mole fraction) (in isopropanol, 313.15 K) was 0.00771 and the solubility (mole fraction) (in isopropanol, 318.15 K) was 0.00933. It also gave a solubility (mole fraction) (in methanol, 278.15 K) of 0.0013, a solubility (mole fraction) (in methanol, 283.15 K) of 0.00156 and a solubility (mole fraction) (in methanol, 288.15 K) of 0.00187. For the same molecule, the solubility (mole fraction) (in methanol, 293.15 K) was 0.00224, the solubility (mole fraction) (in methanol, 298.15 K) was 0.00267 and the solubility (mole fraction) (in methanol, 303.15 K) was 0.00318. For the same molecule, the solubility (mole fraction) (in methanol, 308.15 K) was 0.00375, the solubility (mole fraction) (in methanol, 313.15 K) was 0.00442 and the solubility (mole fraction) (in methanol, 318.15 K) was 0.00515.
